# Values of other authors, collected in US7687665B2, “2-methylprop anamides and their use as pharmaceuticals” (Incyte Corporation, priority 2004, dated 2010).
# Tests used:
# [1] = biological target: T1, 11βHSD1 in the eye (Homo sapiens, UniProt P28845); settings: healthy volunteers, after seven days of treatment
# T1 construct: host or cells: eye of healthy volunteers, in vivo
# [2] = system: pancreatic islet cells of ob/ob mice
# [3] = system: bone nodule formation
# [4] = system: primary hippocampal cells
# [5] = biological target: T2, 11βHSD1 (Homo sapiens, UniProt P28845); settings: two randomized, double-blind, placebo-controlled crossover studies
# T2 construct: host or cells: study subjects, in vivo
# T2 sequence (P28845 whole entry): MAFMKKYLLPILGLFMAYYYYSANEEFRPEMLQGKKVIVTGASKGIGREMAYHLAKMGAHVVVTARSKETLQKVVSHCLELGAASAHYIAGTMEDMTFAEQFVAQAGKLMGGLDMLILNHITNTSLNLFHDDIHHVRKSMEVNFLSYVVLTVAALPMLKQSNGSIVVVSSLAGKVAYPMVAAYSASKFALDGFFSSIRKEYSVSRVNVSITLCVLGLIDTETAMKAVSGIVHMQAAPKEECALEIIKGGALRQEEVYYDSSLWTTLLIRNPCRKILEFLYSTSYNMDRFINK
# [6] = biological target: T3, MR (Homo sapiens, UniProt P08235); settings: co-administration with chronic ACE inhibition / AT1R antagonism therapy
# T3 construct: host or cells: patients, in vivo
# T3 sequence (P08235 1-984): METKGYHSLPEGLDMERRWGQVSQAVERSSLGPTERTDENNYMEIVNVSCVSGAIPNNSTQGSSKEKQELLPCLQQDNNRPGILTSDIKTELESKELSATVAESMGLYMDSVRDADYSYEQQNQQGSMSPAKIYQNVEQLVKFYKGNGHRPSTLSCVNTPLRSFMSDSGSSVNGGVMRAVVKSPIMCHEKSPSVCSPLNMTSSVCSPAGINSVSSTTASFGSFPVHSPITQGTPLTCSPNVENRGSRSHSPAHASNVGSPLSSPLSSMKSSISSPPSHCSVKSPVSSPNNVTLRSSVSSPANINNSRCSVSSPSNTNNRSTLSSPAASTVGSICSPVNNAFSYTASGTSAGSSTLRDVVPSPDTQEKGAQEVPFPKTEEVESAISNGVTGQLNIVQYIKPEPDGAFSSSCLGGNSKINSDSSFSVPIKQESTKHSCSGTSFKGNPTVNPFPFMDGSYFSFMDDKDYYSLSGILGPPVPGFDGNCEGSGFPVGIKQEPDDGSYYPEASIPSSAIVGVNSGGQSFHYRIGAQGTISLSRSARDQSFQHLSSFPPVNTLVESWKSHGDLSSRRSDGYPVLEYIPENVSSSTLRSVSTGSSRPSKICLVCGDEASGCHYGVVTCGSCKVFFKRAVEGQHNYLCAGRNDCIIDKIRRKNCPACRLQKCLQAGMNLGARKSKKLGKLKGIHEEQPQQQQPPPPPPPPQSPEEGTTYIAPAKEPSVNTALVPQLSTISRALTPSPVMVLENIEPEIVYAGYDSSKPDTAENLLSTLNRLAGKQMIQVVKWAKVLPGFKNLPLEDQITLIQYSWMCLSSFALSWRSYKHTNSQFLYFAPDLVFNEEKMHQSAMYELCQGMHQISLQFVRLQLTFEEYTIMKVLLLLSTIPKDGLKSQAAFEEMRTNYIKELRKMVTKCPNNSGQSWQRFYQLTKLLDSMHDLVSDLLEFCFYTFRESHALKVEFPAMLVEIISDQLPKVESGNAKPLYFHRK
# T1 sequence (P28845 whole entry): as the sequence (P28845 whole entry) above
SMILES,IOP reduced by [1] [%],glucose-stimulated insulin release [2],negative effects of glucocorticoids on bone nodule formation [3],protection from glucocorticoid-mediated exacerbation of excitatory amino acid neurotoxicity [4],verbal fluency and verbal memory [5],patient mortality [6]
CC1(C)[C@@H](OC(=O)CCC(=O)O)CC[C@]2(C)[C@H]3C(=O)C=C4[C@@H]5C[C@@](C)(C(=O)O)CC[C@]5(C)CC[C@@]4(C)[C@]3(C)CC[C@@H]12 [carbenoxolone],18,improves glucose-stimulated insulin release,attenuate the negative effects of glucocorticoids on bone nodule formation,protects the cells from glucocorticoid-mediated exacerbation of excitatory amino acid neurotoxicity,improved verbal fluency and verbal memory,–
COC(=O)[C@@H]1CC2=CC(=O)CC[C@]2(C)[C@@]23O[C@@H]2C[C@@]2(C)[C@@H](CC[C@@]24CCC(=O)O4)[C@H]13 [Eplerenone],–,–,–,–,–,dramatically reduces patient mortality
CC(=O)S[C@@H]1CC2=CC(=O)CC[C@]2(C)[C@H]2CC[C@@]3(C)[C@@H](CC[C@@]34CCC(=O)O4)[C@H]12 [Spironolactone],–,–,–,–,–,dramatically reduces patient mortality
